Columns and labels:
[1] = test system: HDAC; experiment: Immunoblot for acetyl-lysine 9 on Histone H3 (HDAC activity) in MDA-MB-231 cells; format: cell-based; conditions: 657 nM, 2.5 h
Procedure: (§1) VRx-3996 was tested for its ability to inhibit HDAC activity in PC3 (prostate) and MDA-MB-231 (triple negative breast cancer) carcinoma cells. Cells were exposed to for 2.5 h to VRx-3996 (657 nM), or DMSO prior to being examined for the presence of acetyl-lysine 9 on Histone H3 by immunoblot.

[2] = test system: PBMCs from patients with metastatic breast cancer; experiment: Flow cytometry of immune cell subsets in PBMCs of patients with metastatic breast cancer; format: cell-based, human; conditions: 657 nM, 2.5 h/day, 2 days
Procedure: Peripheral blood mononuclear cells (PBMCs) from 7 patients with metastatic breast cancer were exposed to VRx-3996 daily (657 nM, 2.5 h/day) or DMSO control for 2 consecutive days and then examined by flow cytometry for different immune cell subsets analyzed: 9 standard immune cell subsets, 114 subsets relating to maturation/function.

[3] = test system: HDAC; experiment: Immunoblot for acetyl-lysine 9 on Histone H3 (HDAC activity) in PC3 cells; format: cell-based; conditions: 657 nM, 2.5 h
Procedure: as §1

[4] = test system: PC3 cells; experiment: Cell surface phenotype of PC3 cells by flow cytometry; format: cell-based; conditions: 657 nM, 2.5 h/day, 4 days
Procedure: (§2) After treatment with DMSO (vehicle) or VRx-3996, PC3 or […] cells were analyzed for their cell surface phenotype. Cells were exposed to CHR-3996 daily (657 nM, 2.5 h/day) or DMSO control for 4 consecutive days; on day 5, cells were examined by flow cytometry for cell-surface expression of proteins associated with immune recognition, stimulation, and inhibition. Overall VRx-3996 led to several changes in both cell lines.

[5] = test system: PC3 cells; experiment: NK cell lysis assay (In-111 release) with PC3 cells as target; format: cell-based; conditions: 657 nM, 2.5 h/day, 4 days, targets on day 5, primary NK cells and HaNK
Procedure: Tumor cell lines PC3 and MDA-MB-231, treated with VRx-3996, were tested for their ability to be killed by different primary NK cells and the NK cell line HaNK (NK cells with a high-affinity Fc receptor which has a mutation at 158V of human FcγRIIIa). PC3 and MDA-MB-231 cells were exposed to DMSO or CHR-3996 daily (657 nM, 2.5 h/day) for 4 consecutive days, prior to being used as targets on day 5 for direct NK killing in an overnight standard In-111 release lysis assay. Primary NK cells from human PBMCs of 2 healthy donors (isolated by negative selection), and NKs rested for 24 h at 37 C° and 5% CO2, or pre-exposed to ALT803 (25 ng/ml) for 24 h, were used. HaNK cells were used 24 h post 10 Gy radiation exposure. NK cells were plated and varying effector to target ratios (E:T) against PC3 cells (FIG. 3) and MDA-MB-231 cells (FIG. 4).

[6] = test system: MDA-MB-231 cells; experiment: Cell surface phenotype of MDA-MB-231 cells by flow cytometry; format: cell-based; conditions: 657 nM, 2.5 h/day, 4 days
Procedure: as §2

[7] = PBMCs of patients with metastatic cancer

- MIC-A/B % Pos ([4]; flow cytometry day 5): 48%
- MIC-A/B GeoMFI ([4]; flow cytometry day 5): 124
- % change MIC-A/B % Pos ([4]; vs DMSO): −20%
- % change MIC-A/B GeoMFI ([4]; vs DMSO): 7%
- MIC-A/B % Pos ([6]; flow cytometry day 5): 94.6%
- MIC-A/B GeoMFI ([6]; flow cytometry day 5): 2880
- % change MIC-A/B % Pos ([6]; vs DMSO): 6%
- % change MIC-A/B GeoMFI ([6]; vs DMSO): 411%
SMILES: O=C(NO)c1cnc(N2CC3C(C2)C3NCc2ccc3cc(F)ccc3n2)nc1 (centres unmarked) [VRx-3996, 2-(6-{[(6-Fluoroquinolin-2-yl)methyl]amino}-3-azabicyclo[3.1.0]hex-3-yl)-N-hydroxypyrimidine-5-carboxamide]
- Histone H3 deacetylation (acetyl-lysine 9 on Histone H3) [1]: inhibits Histone H3 deacetylation
- FoxP3+ regulatory T cells in PBMCs [2, 7]: Reduces
- FoxP3 in T regulatory subsets (FACS, FIGS. 5A and 5B) [2, 7]: reduced
- B cell median frequency ([2]; PBMCs, 7 patients): 6.37 % of PBMC
- B cells PDL1+ median frequency ([2]; PBMCs, 7 patients): 0.55 % of PBMC
- CD4 CM PD1+ median frequency ([2]; PBMCs, 7 patients): 3.24 % of PBMC
- CD4 median frequency ([2]; PBMCs, 7 patients): 42.36 % of PBMC
- CD8 Tim3+ median frequency ([2]; PBMCs, 7 patients): 0.06 % of PBMC
- CD8 median frequency ([2]; PBMCs, 7 patients): 17.67 % of PBMC
- CD8 naive median frequency ([2]; PBMCs, 7 patients): 4.99 % of PBMC
- CD49d neg Treg median frequency ([2]; PBMCs, 7 patients): 5.66 % of CD4
- ICOS+ CD4 median frequency ([2]; PBMCs, 7 patients): 1.26 % of PBMC
- ICOS+ PD-1+ CD4 median frequency ([2]; PBMCs, 7 patients): 0.5 % of PBMC
- ICOS+ Treg median frequency ([2]; PBMCs, 7 patients): 2.31 % of CD4
- MDSC CD16+ median frequency ([2]; PBMCs, 7 patients): 2.19 % of PBMC
- MDSC median frequency ([2]; PBMCs, 7 patients): 5.32 % of PBMC
- NK median frequency ([2]; PBMCs, 7 patients): 3.46 % of PBMC
- NKT PD1+ median frequency ([2]; PBMCs, 7 patients): 0.75 % of PBMC
- NKT median frequency ([2]; PBMCs, 7 patients): 4.24 % of PBMC
- PD-1+ Treg median frequency ([2]; PBMCs, 7 patients): 2.31 % of CD4
- Total Treg median frequency ([2]; PBMCs, 7 patients): 9.39 % of CD4
- Treg CD49d neg median frequency ([2]; PBMCs, 7 patients): 0.27 % of PBMC
- Treg ICOS+ median frequency ([2]; PBMCs, 7 patients): 0.14 % of PBMC
- Treg median frequency ([2]; PBMCs, 7 patients): 0.47 % of PBMC
- cDC median frequency ([2]; PBMCs, 7 patients): 0.11 % of PBMC
- dnMDSC PDL1+ median frequency ([2]; PBMCs, 7 patients): 0.07 % of PBMC
- dnMDSC median frequency ([2]; PBMCs, 7 patients): 0.36 % of PBMC
- mMDSC CD16+ median frequency ([2]; PBMCs, 7 patients): 2.08 % of PBMC
- mMDSC median frequency ([2]; PBMCs, 7 patients): 4.15 % of PBMC
- pDC median frequency ([2]; PBMCs, 7 patients): <0.01 % of PBMC
- Histone H3 deacetylation (acetyl-lysine 9 on Histone H3) [3]: inhibits Histone H3 deacetylation
- CD155 % Pos ([4]; flow cytometry day 5): 95.9%
- CD155 GeoMFI ([4]; flow cytometry day 5): 742
- EGFR % Pos ([4]; flow cytometry day 5): 75.6%
- EGFR GeoMFI ([4]; flow cytometry day 5): 291
- Fas % Pos ([4]; flow cytometry day 5): 35.3%
- Fas GeoMFI ([4]; flow cytometry day 5): 79
- HLA-A, B, C % Pos ([4]; flow cytometry day 5): 94.4%
- HLA-A, B, C GeoMFI ([4]; flow cytometry day 5): 1198
- ICAM-1 % Pos ([4]; flow cytometry day 5): 66.8%
- ICAM-1 GeoMFI ([4]; flow cytometry day 5): 129
- PD-L1 % Pos ([4]; flow cytometry day 5): 28%
- PD-L1 GeoMFI ([4]; flow cytometry day 5): 43
- ULBP-3 % Pos ([4]; flow cytometry day 5): 7.6%
- ULBP-3 GeoMFI ([4]; flow cytometry day 5): 31
- % change CD155 % Pos ([4]; vs DMSO): <5%
- % change CD155 GeoMFI ([4]; vs DMSO): 50%
- % change EGFR % Pos ([4]; vs DMSO): −15%
- % change EGFR GeoMFI ([4]; vs DMSO): −33%
- % change Fas % Pos ([4]; vs DMSO): −32%
- % change Fas GeoMFI ([4]; vs DMSO): −7%
- % change HLA-A, B, C % Pos ([4]; vs DMSO): <5%
- % change HLA-A, B, C GeoMFI ([4]; vs DMSO): 77%
- % change ICAM-1 % Pos ([4]; vs DMSO): <5%
- % change ICAM-1 GeoMFI ([4]; vs DMSO): 32%
- % change PD-L1 % Pos ([4]; vs DMSO): −39%
- % change PD-L1 GeoMFI ([4]; vs DMSO): −27%
- % change ULBP-3 % Pos ([4]; vs DMSO): −88%
- % change ULBP-3 GeoMFI ([4]; vs DMSO): −75%
- Sensitization of PC3 cells to NK lysis [5]: Sensitizes PC3 Cells to NK Lysis
- CD122 % Pos ([6]; flow cytometry day 5): 81.9%
- CD122 GeoMFI ([6]; flow cytometry day 5): 735
- CD155 % Pos ([6]; flow cytometry day 5): 96.1%
- CD155 GeoMFI ([6]; flow cytometry day 5): 2937
- EGFR % Pos ([6]; flow cytometry day 5): 81.9%
- EGFR GeoMFI ([6]; flow cytometry day 5): 735
- Fas % Pos ([6]; flow cytometry day 5): 27.3%
- Fas GeoMFI ([6]; flow cytometry day 5): 190
- HLA-A, B, C % Pos ([6]; flow cytometry day 5): 96.2%
- HLA-A, B, C GeoMFI ([6]; flow cytometry day 5): 2470
- ICAM-1 % Pos ([6]; flow cytometry day 5): 96.2%
- ICAM-1 GeoMFI ([6]; flow cytometry day 5): 8554
- PD-L1 % Pos ([6]; flow cytometry day 5): 80%
- PD-L1 GeoMFI ([6]; flow cytometry day 5): 303
- TRAIL-R1(DR4) % Pos ([6]; flow cytometry day 5): 27.1%
- TRAIL-R1(DR4) GeoMFI ([6]; flow cytometry day 5): 107
- ULBP-2/5/6 % Pos ([6]; flow cytometry day 5): 75.9%
- ULBP-2/5/6 GeoMFI ([6]; flow cytometry day 5): 365
- % change CD122 % Pos ([6]; vs DMSO): −10%
- % change CD122 GeoMFI ([6]; vs DMSO): 119%
- % change CD155 % Pos ([6]; vs DMSO): <5%
- % change CD155 GeoMFI ([6]; vs DMSO): 197%
- % change EGFR % Pos ([6]; vs DMSO): −10%
- % change EGFR GeoMFI ([6]; vs DMSO): 119%
- % change Fas % Pos ([6]; vs DMSO): −23%
- % change Fas GeoMFI ([6]; vs DMSO): 184%
- % change HLA-A, B, C % Pos ([6]; vs DMSO): <5%
- % change HLA-A, B, C GeoMFI ([6]; vs DMSO): 142%
- % change ICAM-1 % Pos ([6]; vs DMSO): <5%
- % change ICAM-1 GeoMFI ([6]; vs DMSO): 546%
- % change PD-L1 % Pos ([6]; vs DMSO): <5%
- % change PD-L1 GeoMFI ([6]; vs DMSO): 175%
- % change TRAIL-R1(DR4) % Pos ([6]; vs DMSO): 293%
- % change TRAIL-R1(DR4) GeoMFI ([6]; vs DMSO): 1290%
- % change ULBP-2/5/6 % Pos ([6]; vs DMSO): 6.5%
- % change ULBP-2/5/6 GeoMFI ([6]; vs DMSO): 244%

Reference: patent publication US12427152B2, “HDAC inhibitors for use with NK cell based therapies” (Viracta Therapeutics, Inc., priority 2016, dated 2025)
